Experimental data: US11021464B2, “Crystalline forms of 4-(tert-butoxyamino)-6-(6-(trifluoromethyl)pyridin-2-yl)-N-(2-(trifluoromethyl)pyridin-4-yl)-1,3,5-triazin-2-amine methanesulfonic acid salt” (CHIA TAI TIANQING PHARMACEUTICAL GROUP CO., LTD., priority 2017, dated 2021)
Like-named read-outs stand apart in the source and are kept apart here. Blank lines part the entries; values can stand above or below the molecule they belong to.

Tests used:
IDH2 (R172K, 40-end) = biological target: T1, IDH2 (R172K, 40-end) (Homo sapiens, UniProt P48735, R172K); test: Inhibitory activity test against IDH2 (NADPH decrease, diaphorase/resazurin fluorescence); assay type: biochemical
T1 sequence (P48735 40-452 R172K): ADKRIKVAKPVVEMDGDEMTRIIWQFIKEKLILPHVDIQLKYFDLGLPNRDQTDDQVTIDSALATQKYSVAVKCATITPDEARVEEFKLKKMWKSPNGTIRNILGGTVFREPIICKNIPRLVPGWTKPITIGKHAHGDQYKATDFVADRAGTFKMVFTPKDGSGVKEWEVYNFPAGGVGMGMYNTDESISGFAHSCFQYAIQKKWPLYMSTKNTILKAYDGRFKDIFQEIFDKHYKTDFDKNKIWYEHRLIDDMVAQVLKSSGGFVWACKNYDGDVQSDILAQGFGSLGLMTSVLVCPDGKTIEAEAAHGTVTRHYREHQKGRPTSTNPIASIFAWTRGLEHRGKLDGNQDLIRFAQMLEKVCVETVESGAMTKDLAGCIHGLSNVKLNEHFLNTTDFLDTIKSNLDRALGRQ
Description: The inhibitory activity of the compound of the present application against IDH2 (R172K, 40-end) was determined by using the following method.
The inhibitory activity of a compound against IDH2 (R172K, 40-end) was determined by the decrease of a helper factor NADPH (reduced coenzyme II). The test compound was pre-incubated with an enzyme and NADPH, and then a reaction was initiated by the addition of a-KG, and performed for 120 minutes under a linear condition. Then, the reaction was terminated by the addition of diaphorase (lipoamide dehydrogenase) and the corresponding substrate resazurin. Diaphorase terminated the IDH2m reaction by decreasing the available helper factor NADPH, which oxidized NADPH to NADP (oxidized coenzyme II), and reduced resazurin to highly fluorescent resorufin. The amount of remaining helper factor NADPH after a specific reaction time was quantified via an easily detectable fluorophore.
Specifically, 2.5 μl of a 3-fold gradient diluted test compound was added to a 384-well plate, and then 5 μl of a reaction buffer (20 mM Tris-HCl, PH7.5; 150 mM NaCl; 10 mM MgCl2; 10 mM MnCl2; 0.4 mg/ml BSA and 2 mM DTT) containing 80 nM IDH2 (R172K, 40-end) and 40 μM NADPH was added. Then, the resulting test mixture was incubated for 120 minutes at a temperature of 23° C., and then 2.5 μl of the reaction buffer containing 4 mM a-KG was added to initiate the reaction. After incubating for 120 minutes at room temperature, 5 μl of a termination mixture (0.4 U/ml diaphorase and 40 μM resazurin) prepared with the reaction buffer was added to convert resazurin to resorufin to determine the remaining NADPH.

[1] = Pharmacokinetic test in rats, single intragastric dose of 5 mg/kg; assay type: in vivo; settings: male rats
Description: Healthy male adult rats (7-9 weeks old) were used, each group of animals (3 male rats) was intragastrically administered once at a single dose of 5 mg/kg. The animals in the intragastric administration group were fasted overnight before this study. The fasting time period was from 10 hours before administration to 4 hours after administration.
Blood samples were taken at 0.25, 0.5, 1, 2, 4, 6, 8 and 24 h after administration. The animals were anesthetized with isoflurane using a small animal anesthesia machine, and then 0.3 mL whole blood samples were taken from the fundus venous plexus. The blood samples were placed in heparin anticoagulant tubes, and centrifuged for 5 min at 4° C. and 4000 rpm. The resulting plasma samples were transferred to centrifuge tubes, and stored at −80° C. until analysis.
Verified liquid chromatography-tandem mass spectrometry (LC-MS/MS) method was used to analyze the plasma samples. Plasma concentration-time data of individual animals were analyzed using WinNonlin (Professional Edition, version 6.3; Pharsight Company) software. The non-compartmental model was introduced for concentration analysis. The pharmacokinetic parameters (PK parameters) of the compounds were calculated.

[2] = Hygroscopicity test of various salts (Chinese Pharmacopoeia 2010, Part II, Appendix XIX J); assay type: physicochemical; settings: HR = 80% ± 2
Description: The various acid addition salts of the compound of Formula I were tested according to “Guiding Principles for Drug Hygroscopicity Test” described in the Chinese Pharmacopoeia, 2010 edition, Part II, Appendix XIX J. The increased weights by hygroscopy of the samples were calculated respectively, and the results are shown in Table 11.

[3] = Stability test of various salts, high temperature and high humidity (Chinese Pharmacopoeia 2010, Part II, Appendix XIX C); assay type: physicochemical; settings: for Purity before test: before high temperature and high humidity test
Description: The stability of the various acid addition salts of the compound of Formula I were tested according to the method described in the Chinese Pharmacopoeia, 2010 edition, Part II, Appendix XIX C.

[4] = Pharmacokinetic test in SD rats, intragastric 50 mg/kg of salts and crystalline forms; assay type: in vivo; settings: 50 mg/kg (in free base)
Description: Number and gender: 20, males;
Twenty male SPF SD rats were randomly divided into 4 groups, fasted (free access to water) overnight, and then intragastrically administered with 50 mg/kg of the crystalline Form I of the mesylate of the compound of Formula I (Example 11), 50 mg/kg of the crystalline Form II of the mesylate of the compound of Formula I (Example 12), 50 mg/kg of the crystalline Form VIII of the mesylate of the compound of Formula I (Example 19) and 50 mg/kg of the hydrochloride salt of the compound of Formula I (Example 7), respectively (in basic group). Blood samples (0.2˜0.3 mL) were taken from the orbital of the rats at the blood collection time points 0.25 h, 0.5 h, 1 h, 2 h, 3 h, 4 h, 6 h, 8 h, 10 h, 24 h, 30 h and 48 h after administration. The whole blood collected was then placed in EDTA-K2 centrifuge tubes, stored at 4° C., and centrifuged for 10 min at a speed of 4000 rpm at 4° C. within 0.5 h to separate plasma. After the collection of all the plasma, it was stored at −20° C. within 1 h. Pharmacokinetic parameters (PK parameters) were calculated using DAS 3.2.1 software according to the non-compartment statistical moment theory, and the results are shown in Table 15.

[5] = tested on: relapsed and refractory AML; settings: cited from earlier work
[6] = listed as The crystalline Form II of the mesylate of the compound of Formula I, 50 mg/kg
[7] = listed as The crystalline Form VIII of the mesylate of the compound of Formula I, 50 mg/kg
[8] = male, SD, rat, plasma, po, 50 mg/kg

SMILES: CC(C)(C)ONc1nc(Nc2ccnc(C(F)(F)F)c2)nc(-c2cccc(C(F)(F)F)n2)n1 [The compound of Formula I, 4-(tert-butoxyamino)-6-(6-(trifluoromethyl)pyridin-2-yl)-N-(2-(trifluoromethyl)pyridin-4-yl)-1,3,5-triazin-2-amine]
- inhibitory activity compared with AG-221 (in words) (IDH2 (R172K, 40-end); IDH2 (R172K, 40-end)): better inhibitory activity than AG-221
- IC50 (IDH2 (R172K, 40-end); IDH2 (R172K, 40-end), 80 nM enzyme, 40 μM NADPH, read-out: IC50): 32 nM
- half-life (in words) [1]: long half-life
- plasma concentration compared with AG-221 at the same dosage (in words) [1]: higher than AG-221

SMILES: CC(C)(C)ONc1nc(Nc2ccnc(C(F)(F)F)c2)nc(-c2cccc(C(F)(F)F)n2)n1.CS(=O)(=O)O [The mesylate (Example 12), 4-(tert-butoxyamino)-6-(6-(trifluoromethyl)pyridin-2-yl)-N-(2-(trifluoromethyl)pyridin-4-yl)-1,3,5-triazin-2-amine methanesulfonic acid salt]
- AUC(0-t) [4, 6]: 42249 ng·h/mL
- AUC(0-∞) [4, 6]: 43976 ng·h/mL
- Cmax [4, 6]: 2102 ng/mL
- MRT(0-t) [4, 6]: 15.0 h
- T1/2 [4, 6]: 9.53 h
- Tmax [4, 6]: 8.80 h

SMILES: CC(C)(O)CNc1nc(Nc2ccnc(C(F)(F)F)c2)nc(-c2cccc(C(F)(F)F)n2)n1 [AG-221, Enasidenib]
- IC50 (IDH2 (R172K, 40-end)): 68 nM
- complete remission rate (CR) [5]: up to 27%
- overall response rate (ORR) [5]: up to 41%
- effective patients who insist on the treatment for at least 6 months ([5]; effective patients): 76%
- effective patients with a stable condition ([5]; effective patients): 44%

SMILES: CC(C)(C)ONc1nc(Nc2ccnc(C(F)(F)F)c2)nc(-c2cccc(C(F)(F)F)n2)n1.CS(=O)(=O)O [4-(tert-butoxyamino)-6-(6-(trifluoromethyl)pyridin-2-yl)-N-(2-(trifluoromethyl)pyridin-4-yl)-1,3,5-triazin-2-amine methanesulfonic acid salt]
- Increased Weights by Hygroscopy [2]: 1.0%
- Purity after high temperature and high humidity test [3]: 99.22%
- Purity before test [3]: 98.82%
- AUC(0-t) [4, 7]: 42249 ng·h/mL
- AUC(0-∞) [4, 7]: 43976 ng·h/mL
- Cmax [4, 7]: 2102 ng/mL
- MRT(0-t) [4, 7]: 15.0 h
- T1/2 [4, 7]: 9.53 h
- Tmax [4, 7]: 8.80 h
- AUC(0-inf) [4, 8]: 47400 ng·h/mL
- half-life [4, 8]: 10.4 h
- AUC(0-t) ([4]; male, SD, rat, plasma, po, 50 mg/kg, read-out: AUC(0-t)): 43900 ng·h/mL
- Cmax ([4]; male, SD, rat, plasma, po, 50 mg/kg, read-out: Cmax): 1730 ng/mL
- MRT last ([4]; male, SD, rat, plasma, po, 50 mg/kg, read-out: MRT(0-t)): 16.5 h
- Tmax ([4]; male, SD, rat, plasma, po, 50 mg/kg, read-out: Tmax): 6.6 h

Second part, the molecule after the results:

- Increased Weights by Hygroscopy [2]: 1.3%
- Purity after high temperature and high humidity test [3]: 93.58%
- Purity before test [3]: 99.30%
SMILES: CC(C)(C)ONc1nc(Nc2ccnc(C(F)(F)F)c2)nc(-c2cccc(C(F)(F)F)n2)n1.O=S(=O)(O)O [The sulfate (Example 8)]

- Increased Weights by Hygroscopy [2]: 0.7%
- Purity after high temperature and high humidity test [3]: 97.63%
- Purity before test [3]: 98.79%
SMILES: CC(C)(C)ONc1nc(Nc2ccnc(C(F)(F)F)c2)nc(-c2cccc(C(F)(F)F)n2)n1.Cc1ccc(S(=O)(=O)O)cc1 [The p-toluenesulfonate (Example 9)]

- Increased Weights by Hygroscopy [2]: 0.9%
- Purity after high temperature and high humidity test [3]: 99.62%
- Purity before test [3]: 98.85%
- AUC(0-t) [4]: 48570.9 ng·h/mL
- AUC(0-∞) [4]: 55252.1 ng·h/mL
- Cmax [4]: 1642 ng/mL
- MRT(0-t) [4]: 18.02 h
- T1/2 [4]: 13.67 h
- Tmax [4]: 10.6 h
SMILES: CC(C)(C)ONc1nc(Nc2ccnc(C(F)(F)F)c2)nc(-c2cccc(C(F)(F)F)n2)n1.Cl [The hydrochloride salt (Example 7)]

- Increased Weights by Hygroscopy [2]: 2.2%
SMILES: CC(C)(C)ONc1nc(Nc2ccnc(C(F)(F)F)c2)nc(-c2cccc(C(F)(F)F)n2)n1.O=C(O)/C=C\C(=O)O [Maleate (Example 10)]
